From US9427425B2, “Extracts, fractions and compositions comprising acetogenins and their applications” (LAILA NUTRACEUTICALS, priority 2009, dated 2016)
Blank lines part the entries; values can stand above or below the molecule they belong to.

Key:
TNFα [1] = experiment: Inhibition of LPS induced TNFα in THP-1 human monocytes (EIA); assay type: cell-based
Procedure: Inhibition of Tumor necrosis factor-α (TNF-α) in vitro by extracts, fractions and compounds of Annona squamosa: The anti-inflammatory activities of extracts, fractions and compounds of Annona squamosa were assessed in a cell based in vitro assay. Briefly, THP-1 human monocytes cells were washed and re-suspended in phenol red free Dulbecco's Modified Eagle's Medium (DMEM) supplemented with 1% fetal Bovine serum (FBS). Equal number of cells was added to each well of a 96-well TC plate and the cells were pretreated for 2 h with various concentrations (ranging from 0.1 to 200 ng/mL; solutions prepared in culture medium from a stock solution containing 50 mg/l mL DMSO of each test compound) of extracts, fractions and compounds of Annona squamosa. The inflammatory response was induced by 100 ng/mL of LPS for 4 h at 37° C. in presence of 5% CO2. The vehicle control culture wells received 0.1% DMSO in culture medium. The cell culture supernatants were collected and assessed for secretory pro-inflammatory cytokine, TNFα. The TNFα concentration was quantitatively measured by highly specific and sensitive Enzyme Immuno Assay (EIA) kit supplied by R&D Systems, USA. The enzyme immuno assay was performed based on the protocol provided by the vendor. The inhibitory concentration for 50% inhibition (IC50) of TNFα was determined from a plot drawn for ingredient concentrations against corresponding TNFα levels. […] Table 1 is a summary of 50% inhibitory (IC50) concentrations of various extracts, fractions and compounds derived from Annona squamosa plant parts in cell based in vitro model.

TNFα [2] = experiment: Serum TNFα in FCA challenged rats (enzyme-immuno assay kit); assay type: in vivo, Sprague Dawley rats; conditions: 10 mg/kg
Procedure: After 14 days of FCA challenge, serum TNFα was quantitatively measured by enzyme-immuno assay kit (R&D Systems, USA). The bars a, b and c represent the levels of the cytokines in groups supplemented with control, LI12101 (100 mg/kg) and prednisolone (10 mg/kg) respectively. Each bar represents mean±SD, N=6. * p<0.05 and ** p<0.005 (vs. control).
After 14 days of FCA challenge, serum TNFα[…] was quantitatively measured by enzyme-immuno assay kit (R&D Systems, USA). The bars represent the levels of the cytokines in groups supplemented with control, LI12100 at 50 mg/kg body weight, LI12100 at 100 mg/kg body weight and prednisolone (10 mg/kg) respectively. Each bar represents mean±SD, N=6.
The levels of cytokine tumor necrosis factor alpha (TNFα) were evaluated in blood serum collected 13 days after FCA challenge. The serum cytokine levels were measured using enzyme-immune assay kit supplied by R & D systems, USA.
The levels of cytokine tumor necrosis factor-alpha (TNFα) were evaluated in blood serum collected 14 days after FCA challenge. The serum cytokine levels were measured using enzyme-immune assay kit supplied by R & D systems, USA.

IL-6 = experiment: Serum cytokine multiplex assay in FCA induced rats: IL-6; assay type: in vivo, Sprague Dawley rats; conditions: 10 mg/kg; vehicle control = 1.000
Text: (§1) Further, the levels of a wide range of cytokine biomarkers were estimated in the serum of the treatment groups supplemented with LI12100 and the control group using multiplex assay (RCYTOMAG 80K) following the instructions provided by the vendor (Millipore Corporation, Billerica, Mass., USA). […] The cytokines modulated by LI12100 include TNFα, IFNγ, IL-1β, IL-2, IL-4, IL-6, IL-13, MCP-1, Rantes and Eotaxin.
as §1, with “groups” for “groups supplemented with LI12100”, “ameliorated” for “modulated”, “Eotaxin as summarized in Table 3.” for “Eotaxin.”

IL-1β = experiment: Serum cytokine multiplex assay in FCA induced rats: IL-1β; assay type: in vivo, Sprague Dawley rats; conditions: 10 mg/kg; vehicle control = 1.000
Text: as §1
as §1, with “groups” for “groups supplemented with LI12100”, “ameliorated” for “modulated”, “Eotaxin as summarized in Table 3.” for “Eotaxin.”

Eotaxin = experiment: Serum cytokine multiplex assay in FCA induced rats: Eotaxin; assay type: in vivo, Sprague Dawley rats; conditions: 10 mg/kg; vehicle control = 1.000
Text: as §1
as §1, with “groups” for “groups supplemented with LI12100”, “ameliorated” for “modulated”, “Eotaxin as summarized in Table 3.” for “Eotaxin.”

IL-13 = experiment: Serum cytokine multiplex assay in FCA induced rats: IL-13; assay type: in vivo, Sprague Dawley rats; conditions: 10 mg/kg; vehicle control = 1.000
Text: as §1
as §1, with “groups” for “groups supplemented with LI12100”, “ameliorated” for “modulated”, “Eotaxin as summarized in Table 3.” for “Eotaxin.”

IL-4 = experiment: Serum cytokine multiplex assay in FCA induced rats: IL-4; assay type: in vivo, Sprague Dawley rats; conditions: 10 mg/kg; vehicle control = 1.000
Text: as §1
as §1, with “groups” for “groups supplemented with LI12100”, “ameliorated” for “modulated”, “Eotaxin as summarized in Table 3.” for “Eotaxin.”

IL-2 = experiment: Serum cytokine multiplex assay in FCA induced rats: IL-2; assay type: in vivo, Sprague Dawley rats; conditions: 10 mg/kg; vehicle control = 1.000
Text: as §1
as §1, with “groups” for “groups supplemented with LI12100”, “ameliorated” for “modulated”, “Eotaxin as summarized in Table 3.” for “Eotaxin.”

MCP-1 = experiment: Serum cytokine multiplex assay in FCA induced rats: MCP-1; assay type: in vivo, Sprague Dawley rats; conditions: 10 mg/kg; vehicle control = 1.000
Text: as §1
as §1, with “groups” for “groups supplemented with LI12100”, “ameliorated” for “modulated”, “Eotaxin as summarized in Table 3.” for “Eotaxin.”

[3] = system: Freund's Complete Adjuvant induced paw edema; experiment: Freund's Complete Adjuvant induced arthritis model, paw edema; assay type: in vivo, Sprague Dawley rats; conditions: 10 mg/kg positive control
Procedure: The potent in vitro anti-inflammatory efficacy shown by the Annona squamosa leaf ethyl acetate extract (LI12101; standardized to 0.2% squamocin C) was then tested in an in vivo system using Freund's Complete Adjuvant induced arthritis model of Sprague Dawley rats. The anti-inflammatory efficacy of LI12101 (100 mg/kg body weight per day) was evaluated in Freund's Complete Adjuvant induced arthritis model of Sprague Dawley rats and compared its efficacy with that shown by the positive control group supplemented with Prednisolone at 10 mg/kg body weight. The treatment group rats were supplemented daily with LI12101 or prednisolone. […] Blood samples were collected from each animal at regular intervals and paw volumes were measured by Plethysmography equipment on the day of FCA injection and after 13 days of FCA inoculation. […]
To further confirm the in vivo anti-inflammatory activity and study the dose dependent effect, the methanol extract of Annona squamosa leaves (LI12100; standardized to 0.24% squamocin C) was evaluated in Freund's Complete Adjuvant induced arthritis model of Sprague Dawley rats. The anti-inflammatory efficacy of LI12100 (at 50 mg/kg and 100 mg/kg body weight per day) was evaluated in FCA induced arthritis model of Sprague Dawley rats and compared its efficacy with that shown by the positive control group supplemented with Prednisolone at 10 mg/kg body weight. […]

IFNγ = experiment: Serum cytokine multiplex assay in FCA induced rats: IFNγ; assay type: in vivo, Sprague Dawley rats; conditions: 10 mg/kg; vehicle control = 1.000
Text: as §1
as §1, with “groups” for “groups supplemented with LI12100”, “ameliorated” for “modulated”, “Eotaxin as summarized in Table 3.” for “Eotaxin.”

TNFα [4] = experiment: Serum cytokine multiplex assay in FCA induced rats: TNFα; assay type: in vivo, Sprague Dawley rats; conditions: 10 mg/kg; vehicle control = 1.000
Text: as §1
as §1, with “groups” for “groups supplemented with LI12100”, “ameliorated” for “modulated”, “Eotaxin as summarized in Table 3.” for “Eotaxin.”

Rantes = experiment: Serum cytokine multiplex assay in FCA induced rats: Rantes; assay type: in vivo, Sprague Dawley rats; conditions: 10 mg/kg; vehicle control = 1.000
Text: as §1
as §1, with “groups” for “groups supplemented with LI12100”, “ameliorated” for “modulated”, “Eotaxin as summarized in Table 3.” for “Eotaxin.”

[5] = LPS induced THP-1 human monocytes

Molecule: CCCCCCCCCCC(O)C1CCC(C2CCC(C(O)CCCCCCCCCCCCC3=CC(C)OC3=O)O2)O1 (centres unmarked) [Squamocin L, squamocin L]
TNFα inhibition IC50 (TNFα [1]; [5]): 0.116 ng/mL

Molecule: C[C@]12C=CC(=O)C=C1CC[C@@H]1[C@@H]2[C@@H](O)C[C@@]2(C)[C@H]1CC[C@]2(O)C(=O)CO [Prednisolone]
serum TNFα level vs control (TNFα [2]; Example 16 study): significant reduction
serum TNFα level vs control (TNFα [2]; Example 17 study): significant reduction
Relative expression of IL-6 in serum (IL-6): 1.377
Relative expression of IL-1β in serum (IL-1β): 0.848
Relative expression of Eotaxin in serum (Eotaxin): 0.992
Relative expression of IL-13 in serum (IL-13): 3.120
Relative expression of IL-4 in serum (IL-4): 0.831
Relative expression of IL-2 in serum (IL-2): 0.515
Relative expression of MCP-1 in serum (MCP-1): 0.802
reduction in paw volume vs control ([3]; Example 16 study): 71%
reduction in paw volume vs control ([3]; Example 17 study): 69.2%
Relative expression of IFNγ in serum (IFNγ): 1.496
Relative expression of TNFα in serum (TNFα [4]): 0.754
Relative expression of Rantes in serum (Rantes): 0.874

TNFα inhibition IC50 (TNFα [1]; [5]): 4.08 ng/mL
Molecule: CCCCCCCCCC[C@H](O)[C@@H]1CC[C@@H]([C@H](O)CC[C@@H](O)[C@@H]2CC[C@@H](CCCCCCCCCC3=C[C@@H](C)OC3=O)O2)O1 [Squamostatin D, squamostatin D]

Molecule: CCCCCCCCCC[C@@H](O)[C@H]1CC[C@H]([C@H]2CC[C@H]([C@H](O)CCCC[C@H](O)CCCCC[C@@H](O)CC3=C[C@H](C)OC3=O)O2)O1 [10-Hydroxyasimicin, 10-hydroxyasimicin]
TNFα inhibition IC50 (TNFα [1]; [5]): 3.21 ng/mL

Molecule: isosquamocin
TNFα inhibition IC50 (TNFα [1]; [5]): 0.080 ng/mL
TNFα inhibition (TNFα [1]; at 100 pg/mL): 63%

TNFα inhibition IC50 (TNFα [1]; [5]): >5 ng/mL
Molecule: CCCCCCCCCCCCCC[C@H]1O[C@H]1CC[C@@H]1O[C@@H]1CCCCCCCCCCC1=C[C@H](C)OC1=O [Dieposabadelin, dieposabadelin]

Molecule: CCCCCC(O)CCCCC(O)C1CCC(C2CCC(C(O)CCCCCCCCCCCCC3=CC(C)OC3=O)O2)O1 (centres unmarked) [Squamocin C, squamocin C]
TNFα inhibition IC50 (TNFα [1]; [5]): 0.0249 ng/mL
TNFα inhibition IC50 (TNFα [1]; THP-1 human monocytes): 0.0249 ng/mL

Molecule: CCCCCCCCCC[C@H](O)[C@H]1CC[C@H]([C@H]2CC[C@H]([C@H](O)CCCCCCCCCC[C@@H](O)CC3=C[C@H](C)OC3=O)O2)O1 [Squamocin G, squamocin G]
TNFα inhibition IC50 (TNFα [1]; [5]): 0.124 ng/mL
